Experiments:
[1] = In vivo PK after s.c. dosing, streptozotocin treated rats; design: species or system Sprague-Dawley rat; conditions: s.c. 30 nmol/kg, mean value
Method: (§1) Insulin-Fc conjugates were tested in vivo by subcutaneous (s.c.) administration to normal and streptozotocin (STZ) treated male Sprague-Dawley (SD) rats.
(§2) The rats were dosed s.c. in the neck region with a dose of 30 nmol/kg of the insulin-Fc conjugates. Blood samples for blood glucose and plasma insulin analysis were collected from the tongue vein up to 10 days post dosing. The insulin-Fc concentrations were measured by immuno-assay (LLOQ=1000 pM) and the resulting half-life values after s.c. dosing are shown in Table 4. The PK profiles for normal rats are shown in FIG. 3 and for streptozotocin treated rats in FIG. 6. Blood glucose (BG) was measured using Biosen S Line (EKF) and the BG and baseline corrected BG profiles for normal rats are shown in FIGS. 1 and 2 and for streptozotocin treated rats in FIGS. 4 and 5 respectively.

[2] = target: T1, membrane-associated human IGF-1R (Homo sapiens, UniProt P08069); assay: IGF-1 receptor affinity on membrane associated receptors (SPA); type: binding; conditions: membrane-associated IGF-1R, relative to human insulin
T1 construct: expressed in transfected cells; host or cells: BHK cells, pZem219B vector, plasma membrane preparation
Method: (§3) Membrane-associated human IR and IGF-1R are purified from BHK cells stably transfected with the pZem219B vector containing either the human IR-A, IR-B or IGF-IR insert. BHK cells are harvested and homogenized in ice-cold buffer (25 mM HEPES pH 7.4, 25 mM CaCl2 and 1 mM MgCl2, 250 mg/L bacitracin, 0.1 mM Pefablock). The homogenates are layered on a 41% (w/v) sucrose cushion and centrifuged for 75 minutes at 95000 g at 4° C. The plasma membranes are collected, diluted 1:5 with buffer (as above) and centrifuged again for 45 minutes at 40000 g at 4° C. The pellets are resuspended in a minimal volume of buffer and drawn through a needle (size 23) three times before storage at −80° C. until usage. The relative binding affinity for either of the membrane-associated human IR-A, IR-B or IGF-1R is determined by competition binding in a SPA setup. IR assays are performed in duplicate in 96-well OptiPlates (Perkin-Elmer Life Sciences). Membrane protein is incubated with gentle agitation for 150 minutes at 25° C. with 50 pM [^125IA14Y]-human insulin in a total volume of […] assay buffer (50 mM HEPES, 150 mM NaCl, 5 mM MgSO4, 0.01% Triton X-100, 0.1% (w/v) HSA (Sigma A1887), Complete EDTA-free protease inhibitors), 50 μg of wheat germ agglutinate (WGA)-coated PVT microspheres (GE Healthcare) and increasing concentrations of ligand. Assays are terminated by centrifugation of the plate at 2000 rpm for 2 minutes and bound radioactivity quantified by counting on a TopCount NXT (Perkin-Elmer Life Sciences).
(§4) IGF-1R assays are conducted essentially as for the IR binding assays except that membrane-associated IGF-1R and 50 pM [^125I-Tyr31]-human IGF-1 were employed.

[3] = target: T2, membrane-associated human IR-B (Homo sapiens, UniProt P06213); assay: Insulin receptor affinity on membrane associated receptors (SPA), IR-B; type: binding; conditions: relative to human insulin
T2 construct: expressed in transfected cells; host or cells: BHK cells, pZem219B vector, plasma membrane preparation
Method: as §3, §4

[4] = tested on: normal Sprague-Dawley rats; assay: In vivo PD, blood glucose lowering in normal rats; design: species or system Sprague-Dawley rat; conditions: s.c. 30 nmol/kg, baseline corrected BG up to 10 days, difference from vehicle, mean
Method: as §1, §2

[5] = In vivo PK after s.c. dosing, normal rats; design: species or system Sprague-Dawley rat; conditions: s.c. 30 nmol/kg, mean value
Method: as §1, §2

[6] = target: T3, membrane-associated human IR-A (Homo sapiens, UniProt P06213); assay: Insulin receptor affinity on membrane associated receptors (SPA), IR-A; type: binding; conditions: relative to human insulin
T3 construct: expressed in transfected cells; host or cells: BHK cells, pZem219B vector, plasma membrane preparation
Method: as §3, §4

primary rat adipocytes = assay: Lipogenesis in rat adipocytes; type: cell-based; conditions: relative to human insulin
Method: As a measure of in vitro potency of the insulin conjugatess of the invention, lipogenesis can be used. Primary rat adipocytes are isolated from the epididymale fat pads and incubated with 3H-glucose in buffer containing e.g. 0.1% fat free HSA and either standard (human insulin, HI) or insulin conjugates of the invention. The labelled glucose is converted into extractable lipids in a dose dependent way, resulting in full dose response curves. The result is expressed as relative potency (%) with 95% confidence limits of insulin of the invention compared to standard (HI).

[7] = Stability study: purity by anionic exchange chromatography; type: physicochemical; conditions: purity %(5° C.) − purity %(30° C.), 30 μM, pH 7.4
Method: Samples for stability studies were prepared by weighing out 8-10 mg freeze-dried material. The freeze-dried material was solubilized to […] in a premade solution A (5 mM phophate (pH 7.4), 140 mM NaCl and 70 ppm polysorbate 20). Protein concentration was determined using absorbance at 280 nm using a Nanodrop 2000 (Thermo Fisher Scientific Inc.) and theoretical extinction coefficients. Dilution into solution A was done to reach a final concentration of 30 μM.
Anionic exchange chromatography was performed on an Ultra-Performance Liquid Chromatography system (Waters Acquity H-Class) equipped with a fluorescence detector (Waters Acquity FLR Detector). A Bio SAX column with dimensions 50×4.6 mm from Agilent, kept at 30° C., was used in gradient elution mode. Mobile phase A was 5/95 (v/v), acetonitrile/water with 25 mM BIS-TRIS propane, pH 7.3 and mobile phase B was 5/95 (v/v), acetonitrile/water with 25 mM BIS-TRIS propane and 350 mM NaCl, pH 7.3. Injection volume was 3 μL. The flow rate was kept at 0.5 mL/min with a linear gradient from 10 to 47% B in 3 min followed by a linear gradient from 47 to 55% B in 30 min. Peaks were detected with an emission wavelength of […] and data processing is performed with the EMPOWER 3 software from Waters. Samples were analysed for purity as percent API in relation to all other species.
Reported as Δ purity %=purity %(5° C.)−purity % (30° C.).
Stability of Fc-insulin analogues was evaluated by comparing purity from anion exchange chromatography and formation of high molecular weight products (HMWP) at 5° C. (control) versus 30° C. (heat induced stress). […] The amount of HMWP was decreased by 0.5-2% in the stressed sample versus the control, i.e. some aggregated material has disassociated during incubation at 30° C.

[8] = tested on: streptozotocin treated Sprague-Dawley rats; assay: In vivo PD, blood glucose lowering in streptozotocin treated rats; design: species or system Sprague-Dawley rat; conditions: s.c. 30 nmol/kg, baseline corrected BG up to 10 days, difference from vehicle, mean
Method: as §1, §2

hFcRn ectodomain = target: T4, hFcRn ectodomain (Homo sapiens, UniProt P55899); assay: SPR analysis of the binding of hFcRn ECD; conditions: pH 6.0, 25° C., steady-state fitting; read-out: Kn (μM), binding of hFcRn ECD
T4 construct: the hFcRn ectodomain diluted at 4000 nM with 2-fold serial dilutions was injected
Method: First, the three Insulin-Fc samples diluted at 10 ug/ml and the wild-type hIgG4 Fc (produced in HEK293 cells, i.e. glycosylated) diluted at 30 ug/ml in 10 mM sodium acetate (pH 4.5) (GE Healthcare, catalogue #BR100350) were immobilized on a CMD50L sensor chip (XanTec Bioanalytics GmbH) at spot 2 or 4 at 70-90 RU in each used flow cell via amine coupling with 1×HBS-EP+ (pH 7.4) (GE Healthcare, catalogue #BR-1006-69) used as the running buffer. The wild-type hIgG4 Fc was used as the control sample. In each used flow cell, spots 2, 3 and 4 were activated by 100 mM N-hydroxysuccinimide (NHS) and 400 mM N-ethyl-N′-dimethylaminopropyl carbodiimide hydrochloride (EDC) mixed at equal volume before the immobilization and blocked by 1 M ethanolamine hydrochloride-NaOH (pH 8.5) after the immobilization. NHS, EDC and ethanolamine were obtained from the Amine Coupling Kit, type 2 (GE Healthcare, catalogue #BR100633).
Next, the hFcRn ectodomain diluted at 4000 nM with 2-fold serial dilutions was injected through each used flow cell for 60 sec to allow for binding of the hFcRn ectodomain to the Insulin-Fc conjugates and wild-type hIgG4 Fc samples immobilized on the sensor chip, followed by dissociation for 180 sec. 1×PBS-EP+ (pH 6.0) was used as the dilution buffer for the hFcRn ectodomain and the running buffer in each binding cycle at the flow rate of 30 ul/min. After each binding cycle, the sensor chip was regenerated with a 60 sec injection of 1×PBS-EP+ (pH 7.4) at the flow rate of 30 ul/min. The 1×PBS-EP+ (pH 7.4) buffer was prepared by diluting 0.5 M EDTA (pH 8.0) (Invitrogen, catalogue #15575038) at 3 mM into 1×PBS-P+ (GE Healthcare, catalogue #28995084). The 1×PBS-EP+ (pH 6.0) buffer was prepared by adjusting the pH of the 1×PBS-EP+ buffer from 7.4 to 6.0 using ˜10 M HCl. The affinities (equilibrium dissociation constants, KD) were determined via steady-state fitting of the binding curves using the 1:1 binding model in Biacore 4000 Evaluation Software 1.0 (GE Healthcare).

T1 sequence (P08069 31-736 limits assumed): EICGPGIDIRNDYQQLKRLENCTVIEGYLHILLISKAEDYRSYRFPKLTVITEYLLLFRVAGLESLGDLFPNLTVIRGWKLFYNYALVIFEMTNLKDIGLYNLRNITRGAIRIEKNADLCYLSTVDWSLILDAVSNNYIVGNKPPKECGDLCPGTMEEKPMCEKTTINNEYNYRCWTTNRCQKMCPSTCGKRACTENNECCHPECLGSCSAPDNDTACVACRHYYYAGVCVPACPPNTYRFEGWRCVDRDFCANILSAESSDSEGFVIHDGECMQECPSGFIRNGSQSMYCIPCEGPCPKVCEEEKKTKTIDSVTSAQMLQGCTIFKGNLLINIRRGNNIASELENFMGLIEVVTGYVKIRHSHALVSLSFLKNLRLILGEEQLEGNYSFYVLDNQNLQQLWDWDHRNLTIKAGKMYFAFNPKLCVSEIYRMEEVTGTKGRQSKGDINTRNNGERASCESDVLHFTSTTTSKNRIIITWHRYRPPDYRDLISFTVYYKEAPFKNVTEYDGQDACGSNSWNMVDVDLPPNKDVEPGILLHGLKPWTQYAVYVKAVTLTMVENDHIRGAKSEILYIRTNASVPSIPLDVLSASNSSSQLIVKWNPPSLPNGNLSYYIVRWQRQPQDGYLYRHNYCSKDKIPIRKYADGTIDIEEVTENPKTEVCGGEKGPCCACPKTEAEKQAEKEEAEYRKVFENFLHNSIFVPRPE
T1 sequence (P08069 741-1367 partner limits assumed): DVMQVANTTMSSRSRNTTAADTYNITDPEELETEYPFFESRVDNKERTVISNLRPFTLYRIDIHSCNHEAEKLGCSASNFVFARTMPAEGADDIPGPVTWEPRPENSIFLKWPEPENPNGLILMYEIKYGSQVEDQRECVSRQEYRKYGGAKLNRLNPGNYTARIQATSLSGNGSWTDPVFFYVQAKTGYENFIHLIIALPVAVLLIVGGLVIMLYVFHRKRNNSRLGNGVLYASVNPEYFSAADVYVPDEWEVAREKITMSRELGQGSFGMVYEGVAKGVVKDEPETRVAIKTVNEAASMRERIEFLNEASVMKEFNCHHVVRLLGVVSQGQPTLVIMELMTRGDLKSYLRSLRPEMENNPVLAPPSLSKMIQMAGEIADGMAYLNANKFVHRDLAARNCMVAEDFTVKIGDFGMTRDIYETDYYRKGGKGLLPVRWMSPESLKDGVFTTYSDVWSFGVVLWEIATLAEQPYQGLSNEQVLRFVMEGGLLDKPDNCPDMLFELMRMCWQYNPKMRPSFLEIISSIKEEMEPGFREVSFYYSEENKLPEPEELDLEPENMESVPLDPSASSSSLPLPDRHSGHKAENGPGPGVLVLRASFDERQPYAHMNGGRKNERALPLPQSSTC
T4 sequence (P55899 24-297 limits assumed): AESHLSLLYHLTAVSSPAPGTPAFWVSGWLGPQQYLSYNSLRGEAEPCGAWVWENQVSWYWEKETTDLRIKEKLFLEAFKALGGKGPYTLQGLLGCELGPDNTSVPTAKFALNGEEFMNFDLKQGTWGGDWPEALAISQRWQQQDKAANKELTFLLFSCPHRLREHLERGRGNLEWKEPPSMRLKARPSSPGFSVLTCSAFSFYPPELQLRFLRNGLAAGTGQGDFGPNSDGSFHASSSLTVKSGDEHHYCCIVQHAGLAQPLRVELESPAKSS
T4 sequence (P61769 21-119 partner): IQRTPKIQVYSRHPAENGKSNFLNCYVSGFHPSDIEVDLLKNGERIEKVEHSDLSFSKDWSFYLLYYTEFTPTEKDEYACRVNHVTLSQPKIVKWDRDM
T3 sequence (P06213 28-1370 isoform P06213-2 limits assumed): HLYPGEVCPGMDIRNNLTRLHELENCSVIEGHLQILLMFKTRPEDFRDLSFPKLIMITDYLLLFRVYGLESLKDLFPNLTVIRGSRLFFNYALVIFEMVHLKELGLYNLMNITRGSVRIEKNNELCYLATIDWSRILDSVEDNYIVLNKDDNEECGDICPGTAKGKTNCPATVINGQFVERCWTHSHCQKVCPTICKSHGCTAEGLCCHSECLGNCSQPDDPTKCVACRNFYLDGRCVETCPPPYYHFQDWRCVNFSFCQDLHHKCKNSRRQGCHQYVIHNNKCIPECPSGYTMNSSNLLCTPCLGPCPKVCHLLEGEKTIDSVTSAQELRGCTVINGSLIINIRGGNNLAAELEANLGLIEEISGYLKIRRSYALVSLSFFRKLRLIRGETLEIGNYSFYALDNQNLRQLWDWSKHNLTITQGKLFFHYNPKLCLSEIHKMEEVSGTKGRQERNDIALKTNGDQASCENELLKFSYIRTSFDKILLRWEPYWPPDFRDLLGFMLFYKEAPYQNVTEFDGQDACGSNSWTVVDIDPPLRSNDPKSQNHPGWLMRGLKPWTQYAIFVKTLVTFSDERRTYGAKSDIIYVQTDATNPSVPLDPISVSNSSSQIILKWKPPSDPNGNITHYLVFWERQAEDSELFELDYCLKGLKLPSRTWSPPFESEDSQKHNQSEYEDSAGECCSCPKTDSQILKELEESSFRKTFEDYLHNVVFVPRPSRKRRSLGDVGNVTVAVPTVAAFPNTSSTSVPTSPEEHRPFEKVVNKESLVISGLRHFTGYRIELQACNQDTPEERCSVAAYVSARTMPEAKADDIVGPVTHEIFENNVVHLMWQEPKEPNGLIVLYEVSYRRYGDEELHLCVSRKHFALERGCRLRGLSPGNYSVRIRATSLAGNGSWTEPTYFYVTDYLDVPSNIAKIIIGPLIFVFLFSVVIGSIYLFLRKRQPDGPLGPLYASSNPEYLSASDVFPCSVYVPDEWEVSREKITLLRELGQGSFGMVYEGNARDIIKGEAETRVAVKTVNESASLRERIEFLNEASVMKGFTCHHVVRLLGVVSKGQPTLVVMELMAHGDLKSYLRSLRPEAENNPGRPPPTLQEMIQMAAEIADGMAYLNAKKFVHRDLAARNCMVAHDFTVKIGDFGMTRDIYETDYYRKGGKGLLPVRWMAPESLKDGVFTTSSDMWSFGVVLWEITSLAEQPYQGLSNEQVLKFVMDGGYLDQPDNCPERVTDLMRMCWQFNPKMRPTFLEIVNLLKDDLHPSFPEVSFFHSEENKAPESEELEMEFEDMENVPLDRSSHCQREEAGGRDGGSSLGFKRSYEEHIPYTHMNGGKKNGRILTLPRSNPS
T3 sequence (P06213 763-1382 partner limits assumed): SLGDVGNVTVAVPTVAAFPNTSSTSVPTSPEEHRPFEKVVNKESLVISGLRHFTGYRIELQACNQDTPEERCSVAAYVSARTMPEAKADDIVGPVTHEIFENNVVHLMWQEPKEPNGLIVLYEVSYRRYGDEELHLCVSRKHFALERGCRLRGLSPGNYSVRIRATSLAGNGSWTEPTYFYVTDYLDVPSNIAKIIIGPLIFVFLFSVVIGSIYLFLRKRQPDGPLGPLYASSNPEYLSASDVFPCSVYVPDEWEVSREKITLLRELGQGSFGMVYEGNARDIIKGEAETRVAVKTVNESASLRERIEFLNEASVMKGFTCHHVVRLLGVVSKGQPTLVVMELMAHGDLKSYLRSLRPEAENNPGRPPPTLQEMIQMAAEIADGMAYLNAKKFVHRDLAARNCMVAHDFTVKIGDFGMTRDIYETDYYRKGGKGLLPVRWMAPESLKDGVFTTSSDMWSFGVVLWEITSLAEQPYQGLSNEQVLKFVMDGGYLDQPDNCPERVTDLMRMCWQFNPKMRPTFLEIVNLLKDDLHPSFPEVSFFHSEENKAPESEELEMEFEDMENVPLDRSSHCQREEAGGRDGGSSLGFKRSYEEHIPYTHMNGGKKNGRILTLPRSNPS
T2 sequence (P06213 28-758 limits assumed): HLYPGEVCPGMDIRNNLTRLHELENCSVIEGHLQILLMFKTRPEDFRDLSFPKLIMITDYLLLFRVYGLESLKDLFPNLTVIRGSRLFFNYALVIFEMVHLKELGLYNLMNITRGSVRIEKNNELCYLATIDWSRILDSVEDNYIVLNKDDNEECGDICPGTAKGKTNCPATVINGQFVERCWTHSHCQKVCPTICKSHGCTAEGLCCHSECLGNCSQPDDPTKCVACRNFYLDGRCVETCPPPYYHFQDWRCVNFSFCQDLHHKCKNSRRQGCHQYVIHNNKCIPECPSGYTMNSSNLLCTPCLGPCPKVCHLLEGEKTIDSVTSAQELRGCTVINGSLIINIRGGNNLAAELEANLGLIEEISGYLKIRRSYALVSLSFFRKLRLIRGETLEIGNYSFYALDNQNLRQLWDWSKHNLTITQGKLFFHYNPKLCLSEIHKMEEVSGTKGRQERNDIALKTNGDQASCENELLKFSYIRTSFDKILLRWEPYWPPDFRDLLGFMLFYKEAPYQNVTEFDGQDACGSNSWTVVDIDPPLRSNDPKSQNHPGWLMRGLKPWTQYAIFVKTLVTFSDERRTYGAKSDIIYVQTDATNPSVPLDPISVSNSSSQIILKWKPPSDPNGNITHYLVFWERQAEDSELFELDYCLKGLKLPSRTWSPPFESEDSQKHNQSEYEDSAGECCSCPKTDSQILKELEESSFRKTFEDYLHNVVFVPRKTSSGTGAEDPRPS
T2 sequence (P06213 763-1382 partner limits assumed): as the sequence (P06213 763-1382 partner limits assumed) above

In the case of “(A14E, A21G, A22(GQEP)11, A66G, A67Q, A68E, A69K^, A70P, B16E, B25H, B29R, desB30 human insulin)/(226A, 227G, 228P, 234A, 235K, 297E, 315Q, 384Q, des447 hIgG4-Fc(226-447))3,5-bis[(2-acetyl)amino]benzoyl Conjugate [Example 5.3]”, the “PK STZ rat [T1/2, s.c. (h)]” value [1] is reported as 50 h, the “IGF1R mem Rel. aff. (%)” value [2] is reported as 0.29% and the “hIR-B mem Rel. aff. (%)” value [3] is reported as 0.59%. The “AOCBG normal rat” value [4] was 248 mM·h, the “PK normal rat [T1/2, s.c. (h)]” value [5] was 48 h and the “hIR-A mem Rel. aff. (%)” value [6] was 0.66%. The “Lipogenesis Rel. pot. (%)” value (primary rat adipocytes) was 0.64%, the Δ purity [7] was 4.3% and the “AOCBG STZ rat” value [8] was 2771 mM·h. It also gave a Kd (hFcRn ectodomain) of 1.5 µM.

Source: patent US20210393745A1, “OLIGOMER EXTENDED INSULIN-FC CONJUGATES AND THEIR MEDICAL USE” (Novo Nordisk A/S, priority 2018, published 2021)
